Measurements as given in patent US9073974B2, “RGD-containing cyclic peptides” (The Regents of the University of California, priority 2009, dated 2015).
Numbered stars: 1 amine (or outer) side, 2 acyl side, 3 side chain; on linkers, the order of the positions; unused ones are H or OH. Bridge positions count the residues as written; N and C are the ends. Square brackets hold non-standard residues; d marks the D form. Peptide text beside a SMILES is read from it. * marks the point of attachment. Pro(5R-Ph) = O=C(O)[C@@H]1CC[C@H](c2ccccc2)N1; Benzoyl(4-CF3) = O=C(c1ccc(C(F)(F)F)cc1)*; Benzoyl(4-Ph) = O=C(c1ccc(-c2ccccc2)cc1)*; NH(CH2CH2O)2CH2CH2NH2 = NCCOCCOCCN*; Cyclohexylacetyl = O=C(CC1CCCCC1)*; X2 = O=C(C1(N[*:1])CCC(O)CC1)[*:2]; 2Naphthoyl = O=C(c1ccc2ccccc2c1)*; Hydrocinnamoyl = O=C(CCc1ccccc1)*; dCit = NC(=O)NCCC[C@@H](N)C(=O)O; Agp = N=C(N)NC[C@H](N)C(=O)O; Suc = O=C(CCC(=O)[*:2])[*:1]; Pentanoyl = CCCCC(=O)*; X4 = O=C(c1ccc(Br)o1)*; Sar = CNCC(=O)O

These molecules were tested against αvβ3 integrin (Homo sapiens, UniProt P05106+P06756) (assay: Inhibition of biotinylated LXW7 binding to αvβ3-K562 cells (flow cytometry)). Conditions: LXW9-92: inhibiting the binding of biotinylated LXW7 against αvβ3-K562 cells, LXW7 as internal reference.
Parameters: expressed in transfected cells; host or cells: K562 (gift of Dr. Yoshikazu Takada, UC Davis)
Procedure: The apparent IC50 were calculated using Graph Prism software (≦www.graphpad.com≧).
The samples were analyzed with Coulter XL-MCL flow cytometry. The histogram and mean fluorescence intensity (MFI) were determined. The apparent Kd, IC50 were calculated using Graph Prism software (≦www.graphpad.com≧).

αvβ3 integrin, sequence (P06756 31-889 limits assumed): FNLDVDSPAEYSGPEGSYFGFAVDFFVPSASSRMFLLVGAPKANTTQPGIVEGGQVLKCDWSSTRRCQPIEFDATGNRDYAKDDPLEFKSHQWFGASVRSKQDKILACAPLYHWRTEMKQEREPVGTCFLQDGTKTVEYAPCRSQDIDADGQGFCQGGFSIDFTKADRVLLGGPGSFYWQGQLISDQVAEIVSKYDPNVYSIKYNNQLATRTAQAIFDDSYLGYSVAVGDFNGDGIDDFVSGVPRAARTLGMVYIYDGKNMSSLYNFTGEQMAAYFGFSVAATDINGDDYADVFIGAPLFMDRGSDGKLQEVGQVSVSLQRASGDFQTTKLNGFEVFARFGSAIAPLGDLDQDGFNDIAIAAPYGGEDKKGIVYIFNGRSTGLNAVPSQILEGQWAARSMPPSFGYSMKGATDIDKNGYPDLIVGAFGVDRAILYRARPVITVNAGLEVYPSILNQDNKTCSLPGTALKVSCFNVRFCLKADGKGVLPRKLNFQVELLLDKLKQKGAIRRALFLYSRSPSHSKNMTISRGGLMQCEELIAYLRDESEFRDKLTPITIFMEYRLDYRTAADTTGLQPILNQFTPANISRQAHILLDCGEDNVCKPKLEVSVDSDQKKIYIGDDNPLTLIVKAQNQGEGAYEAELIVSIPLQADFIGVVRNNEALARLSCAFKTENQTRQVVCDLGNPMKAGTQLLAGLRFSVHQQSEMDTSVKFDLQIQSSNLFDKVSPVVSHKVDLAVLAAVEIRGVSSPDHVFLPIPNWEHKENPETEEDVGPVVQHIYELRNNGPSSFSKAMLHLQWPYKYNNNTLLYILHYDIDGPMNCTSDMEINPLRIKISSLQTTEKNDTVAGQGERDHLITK
αvβ3 integrin, sequence (P06756 891-1048 partner limits assumed): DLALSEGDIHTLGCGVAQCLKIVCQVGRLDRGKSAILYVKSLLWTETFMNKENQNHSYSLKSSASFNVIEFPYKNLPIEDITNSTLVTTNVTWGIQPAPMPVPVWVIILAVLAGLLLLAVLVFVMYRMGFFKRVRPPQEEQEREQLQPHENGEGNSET
αvβ3 integrin, sequence (P05106 27-788): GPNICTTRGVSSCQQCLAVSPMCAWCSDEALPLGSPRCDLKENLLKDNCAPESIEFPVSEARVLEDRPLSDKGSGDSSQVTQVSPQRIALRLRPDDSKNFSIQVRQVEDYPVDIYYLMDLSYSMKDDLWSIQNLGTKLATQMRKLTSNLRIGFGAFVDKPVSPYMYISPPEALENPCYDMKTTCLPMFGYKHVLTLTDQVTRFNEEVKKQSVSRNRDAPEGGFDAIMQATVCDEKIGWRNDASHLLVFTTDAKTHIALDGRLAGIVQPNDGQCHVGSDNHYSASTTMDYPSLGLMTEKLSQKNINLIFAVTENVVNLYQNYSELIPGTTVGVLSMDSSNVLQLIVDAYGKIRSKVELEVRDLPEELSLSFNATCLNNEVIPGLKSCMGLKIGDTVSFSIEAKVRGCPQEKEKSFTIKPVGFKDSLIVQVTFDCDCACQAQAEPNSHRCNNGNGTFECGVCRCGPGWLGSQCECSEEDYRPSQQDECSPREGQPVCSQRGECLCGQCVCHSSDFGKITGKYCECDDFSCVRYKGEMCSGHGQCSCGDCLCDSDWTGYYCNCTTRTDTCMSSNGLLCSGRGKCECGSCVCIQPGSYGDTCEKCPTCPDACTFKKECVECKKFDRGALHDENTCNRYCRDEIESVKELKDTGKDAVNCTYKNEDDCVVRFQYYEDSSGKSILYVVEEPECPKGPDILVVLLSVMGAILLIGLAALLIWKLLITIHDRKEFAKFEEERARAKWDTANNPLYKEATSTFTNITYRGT

SMILES | IC50 [µM]
CC(C)[C@H]1NC(=O)[C@@H](CC(=O)O)NC(=O)[C@H](CC(=O)O)NC(=O)CNC(=O)[C@H](CNC(=N)N)NC(=O)CNC(=O)[C@H](N)CSSC[C@H](C(N)=O)NC1=O [LXW58, cG-Agp-GDdvc] (H-[dC]G[Agp]GD[dD][dV][dC]-NH2; disulfide 1-8) | > 20
N=C(N)NCCC[C@@H]1NC(=O)CNC(=O)[C@@H](N)CSSC[C@H](C(N)=O)NC(=O)[C@@H]2CC[C@H](c3ccccc3)N2C(=O)[C@@H](CCC(=O)O)NC(=O)[C@H](CC(=O)O)NC(=O)CNC1=O [LXW45, CGRGDe-Ppca-c] (H-CGRGD[dE][Pro(5R-Ph)][dC]-NH2; disulfide 1-8) | > 20
C=CC[C@H]1NC(=O)[C@@H](CC(=O)O)NC(=O)[C@H](CC(=O)O)NC(=O)CNC(=O)[C@H](CCCNC(=N)N)NC(=O)CNC(=O)[C@H](N)CSSC[C@@H](C(N)=O)NC1=O [LXW34, cGRGDd-DAgl-C] | > 20
CC(C)[C@H]1NC(=O)[C@@H](CC(=O)O)NC(=O)[C@H](CC(=O)O)NC(=O)CNC(=O)[C@H](CCCNC(=N)N)NC(=O)CNC(=O)[C@@H](N)CSSC[C@@H](C(N)=O)NC1=O [LXW11, CGRGDdvC] (H-CGRGD[dD][dV]C-NH2; disulfide 1-8) | > 20
CC(C)[C@H]1NC(=O)[C@@H](CC(=O)O)NC(=O)[C@H](CCC(=O)O)NC(=O)CNC(=O)[C@H](CNC(=N)N)NC(=O)CNC(=O)[C@H](N)CSSC[C@H](C(N)=O)NC1=O [LXW59, cG-Agp-GEdvc] (H-[dC]G[Agp]GE[dD][dV][dC]-NH2; disulfide 1-8) | > 20
CN1CC(=O)N[C@@H](CCCNC(=N)N)C(=O)NCC(=O)N[C@@H](CC(=O)O)C(=O)N[C@H](CC(=O)O)C(=O)NC2(CCOCC2)C(=O)N[C@H](C(N)=O)CSSC[C@@H](N)C1=O [LXY38, c-Sar-RGDd-Actp-C] | > 20
CC[C@@H](C)[C@H]1NC(=O)C2(CCC(O)CC2)NC(=O)[C@H](CC(=O)O)NC(=O)CNC(=O)[C@H](CCCNC(=N)N)NC(=O)CN(C)C(=O)[C@H](N)CSSC[C@@H](C(N)=O)NC1=O (stereo partly shown) [LXW42, c-Sar-RGD-Ahch-iC] (H-[dC][Sar]RGD[X2][dI]C-NH2; disulfide 1-8) | > 20

Same assay, conditions: LXW9-92: inhibiting the binding of biotinylated LXW7 against αvβ3-K562 cells; class symbols

SMILES | IC50 [µM]
C#CC[C@H]1NC(=O)[C@@H](CC(=O)O)NC(=O)[C@H](CC(=O)O)NC(=O)CNC(=O)[C@H](CCCNC(=N)N)NC(=O)CNC(=O)[C@H](N)CSSC[C@H](C(N)=O)NC1=O [LWX17, cGRGDd-DPra-c] | 1 to 10
CC(C)[C@H]1NC(=O)[C@@H](CC(=O)O)NC(=O)[C@H](CC(=O)O)NC(=O)CNC(=O)[C@H](CCCNC(=N)N)NC(=O)[C@@H](C)NC(=O)[C@H](N)CSSC[C@H](C(N)=O)NC1=O [LXW13, caRGDdvc] (H-[dC][dA]RGD[dD][dV][dC]-NH2; disulfide 1-8) | 1 to 10
N=C(N)NCCC[C@@H]1NC(=O)CNC(=O)[C@H](N)CSSC[C@H](C(N)=O)NC(=O)[C@@H]2CC[C@H](c3ccccc3)N2C(=O)[C@@H](CCC(=O)O)NC(=O)[C@H](CC(=O)O)NC(=O)CNC1=O [LXW71, cGRGDe-Ppca-c] (H-[dC]GRGD[dE][Pro(5R-Ph)][dC]-NH2; disulfide 1-8) | 1 to 10
CC(C)[C@@H]1C(=O)N[C@@H](C(N)=O)CSSC[C@@H](N)C(=O)NCC(=O)N[C@@H](CCCNC(=N)N)C(=O)NCC(=O)N[C@@H](CC(=O)O)C(=O)N[C@H](CC(=O)O)C(=O)N1C [LXW22, cGRGDd-D(NMe)Val-c] | < 1
CCCCC(=O)N[C@@H]1CSSC[C@H](C(N)=O)NC(=O)[C@@H](C(C)C)NC(=O)[C@@H](CC(=O)O)NC(=O)[C@H](CC(=O)O)NC(=O)CNC(=O)[C@H](CCCNC(=N)N)NC(=O)CNC1=O [LXW77, valeryl-cGRGDdvc] (Pentanoyl-[dC]GRGD[dD][dV][dC]-NH2; disulfide 1-8) | 1 to 10
C=CC[C@H]1NC(=O)[C@@H](CC(=O)O)NC(=O)[C@H](CC(=O)O)NC(=O)CNC(=O)[C@H](CCCNC(=N)N)NC(=O)CNC(=O)[C@H](N)CSSC[C@H](C(N)=O)NC1=O [LWX16, cGRGDd-DAgl-c] | 1 to 10
CC(C)[C@H]1NC(=O)[C@@H](CC(=O)O)NC(=O)[C@H](CC(=O)O)NC(=O)CNC(=O)[C@H](CCCNC(=N)N)NC(=O)CN(C)C(=O)[C@H](N)CSSC[C@H](C(N)=O)NC1=O [LXW14, c-Sar-RGDdvc] (H-[dC][Sar]RGD[dD][dV][dC]-NH2; disulfide 1-8) | 1 to 10
N=C(N)NCCC[C@@H]1NC(=O)CNC(=O)[C@H](N)CSSC[C@H](C(N)=O)NC(=O)[C@@H]2CC[C@H](c3ccccc3)N2C(=O)[C@@H](CCCNC(N)=O)NC(=O)[C@H](CC(=O)O)NC(=O)CNC1=O [LXW70, cGRGD-DCit-Ppca-c] (H-[dC]GRGD[dCit][Pro(5R-Ph)][dC]-NH2; disulfide 1-8) | > 10
N=C(N)NCCC[C@@H]1NC(=O)CNC(=O)[C@H](N)CSSC[C@H](C(N)=O)NC(=O)[C@@H](Cc2csc3ccccc23)NC(=O)[C@@H](CC(=O)O)NC(=O)[C@H](CC(=O)O)NC(=O)CNC1=O [LXW48, cGRGDd-DBta-c] | < 1
CC(C)[C@H]1NC(=O)[C@@H](CC(=O)O)NC(=O)[C@H](CC(=O)O)NC(=O)CNC(=O)[C@H](CCCNC(=N)N)NC(=O)CNC(=O)[C@@H](N)CSSC[C@H](C(N)=O)NC1=O [LXW9, CGRGDdvc] (H-CGRGD[dD][dV][dC]-NH2; disulfide 1-8) | 1 to 10
CC(=O)N[C@@H]1CSSC[C@H](C(N)=O)NC(=O)[C@@H](C(C)C)NC(=O)[C@@H](CC(=O)O)NC(=O)[C@H](CC(=O)O)NC(=O)CNC(=O)[C@H](CCCNC(=N)N)NC(=O)CNC1=O [LXW12, Acetyl-cGRGDdvc] (Ac-[dC]GRGD[dD][dV][dC]-NH2; disulfide 1-8) | < 1
N=C(N)NCCC[C@@H]1NC(=O)CNC(=O)[C@@H](N)CSSC[C@@H](C(N)=O)NC(=O)[C@@H](Cc2cccc3ccccc23)NC(=O)[C@@H](CC(=O)O)NC(=O)[C@H](CC(=O)O)NC(=O)CNC1=O [LXW47, CGRGDd-DNal1-C] | 1 to 10
N=C(N)NCCC[C@@H]1NC(=O)CNC(=O)[C@@H](N)CSSC[C@@H](C(N)=O)NC(=O)[C@@H](Cc2cscn2)NC(=O)[C@@H](CC(=O)O)NC(=O)[C@H](CC(=O)O)NC(=O)CNC1=O [LXW39, CGRGDd-DTha-C] | > 10
CC(C)[C@H]1NC(=O)[C@@H](CC(=O)O)NC(=O)[C@H](CC(=O)O)NC(=O)CNC(=O)[C@H](CCCNC(=N)N)NC(=O)CNC(=O)[C@H](NC(=O)CCc2ccccc2)CSSC[C@H](C(N)=O)NC1=O [LXW80, 3-phenyl propionyl-cGRGDdvc] (Hydrocinnamoyl-[dC]GRGD[dD][dV][dC]-NH2; disulfide 1-8) | < 1
CC(C)[C@H]1NC(=O)[C@@H](CC(=O)O)NC(=O)[C@H](CC(=O)O)NC(=O)CNC(=O)[C@H](CCCNC(=N)N)NC(=O)CNC(=O)[C@H](NC(=O)c2ccc(Br)o2)CSSC[C@H](C(N)=O)NC1=O [LXW90, 5-bromo-2-furoyl-cGRGDdvc] (X4-[dC]GRGD[dD][dV][dC]-NH2; disulfide 1-8) | 1 to 10
CC(C)[C@H]1NC(=O)[C@@H](CC(=O)O)NC(=O)[C@H](CC(=O)O)NC(=O)CNC(=O)[C@H](CCCNC(=N)N)NC(=O)CNC(=O)[C@H](NC(=O)CCC(=O)NCCOCCOCCN)CSSC[C@H](C(N)=O)NC1=O [LXW57, (Ebes)-cGRGDdvc] ({NH(CH2CH2O)2CH2CH2NH2-Suc}-[dC]GRGD[dD][dV][dC]-NH2; disulfide 1-8) | < 1
CC(C)[C@H]1NC(=O)[C@@H](CC(=O)O)NC(=O)[C@H](CC(=O)O)NC(=O)CNC(=O)[C@H](CCCNC(=N)N)NC(=O)CNC(=O)[C@H](N)CSSC[C@@H](C(N)=O)NC1=O [LXW10, cGRGDdvC] (H-[dC]GRGD[dD][dV]C-NH2; disulfide 1-8) | 1 to 10
CC(C)[C@H]1NC(=O)[C@@H](CC(=O)O)NC(=O)[C@H](CC(=O)O)NC(=O)CNC(=O)[C@H](CCCNC(=N)N)NC(=O)CNC(=O)[C@H](NC(=O)c2ccc(C(F)(F)F)cc2)CSSC[C@H](C(N)=O)NC1=O [LXW85, 4-(trifluoromethyl)benzoyl-cGRGDdvc] ({Benzoyl(4-CF3)}-[dC]GRGD[dD][dV][dC]-NH2; disulfide 1-8) | < 1
N=C(N)NCCC[C@@H]1NC(=O)CNC(=O)[C@H](N)CSSC[C@H](C(N)=O)NC(=O)[C@@H](Cc2c[nH]c3ccccc23)NC(=O)[C@@H](CC(=O)O)NC(=O)[C@H](CC(=O)O)NC(=O)CNC1=O [LXW68, cGRGDdwc] (H-[dC]GRGD[dD][dW][dC]-NH2; disulfide 1-8) | < 1
CC(C)[C@H]1NC(=O)[C@@H](CC(=O)O)NC(=O)[C@H](CC(=O)O)NC(=O)CNC(=O)[C@H](CCCNC(=N)N)NC(=O)CNC(=O)[C@H](NC(=O)c2ccc3ccccc3c2)CSSC[C@H](C(N)=O)NC1=O [LXW89, 2-naphthoyl-cGRGDdvc] (2Naphthoyl-[dC]GRGD[dD][dV][dC]-NH2; disulfide 1-8) | < 1
C#CC[C@H]1NC(=O)[C@@H](CC(=O)O)NC(=O)[C@H](CC(=O)O)NC(=O)CNC(=O)[C@H](CCCNC(=N)N)NC(=O)CN(C)C(=O)[C@H](N)CSSC[C@@H](C(N)=O)NC1=O [LXW37, c-Sar-RGDd-DPra-C] | > 10
N=C(N)NCCC[C@@H]1NC(=O)CNC(=O)[C@H](N)CSSC[C@H](C(N)=O)NC(=O)[C@@H](Cc2cscn2)NC(=O)[C@@H](CC(=O)O)NC(=O)[C@H](CC(=O)O)NC(=O)CNC1=O [LXW69, cGRGDd-DTha-c] | 1 to 10
CC(C)[C@H]1NC(=O)[C@@H](CC(=O)O)NC(=O)[C@H](CC(=O)O)NC(=O)CNC(=O)[C@H](CCCNC(=N)N)NC(=O)CNC(=O)[C@H](NC(=O)CC2CCCCC2)CSSC[C@H](C(N)=O)NC1=O [LXW78, cyclohexyl acetyl-cGRGDdvc] (Cyclohexylacetyl-[dC]GRGD[dD][dV][dC]-NH2; disulfide 1-8) | 1 to 10
CC(C)[C@H]1NC(=O)[C@@H](CC(=O)O)NC(=O)[C@H](CC(=O)O)NC(=O)CNC(=O)[C@H](CCCNC(=N)N)NC(=O)CNC(=O)[C@H](NC(=O)c2ccc(-c3ccccc3)cc2)CSSC[C@H](C(N)=O)NC1=O [LXW84, biphenyl-4-carbonyl-cGRGDdvc] ({Benzoyl(4-Ph)}-[dC]GRGD[dD][dV][dC]-NH2; disulfide 1-8) | < 1
